The results in this text go back to patent US8414885B2, “Methods and compositions for treating cancer” (priority 2009, dated 2013).

The structures appear in SMILES notation.

One assay deals with LC3-I/LC3-II. The assay is described as follows: Immunoblotting for LC3-I conversion to LC3-II (autophagy). The class given is cell-based, human. The conditions noted are these: A2058, 3-MA 5 mM. As for the experimental part:
(§1) FIG. 14. ΔPK induced autophagy contributes to its ability to cause melanoma cell death. (A) A2058 cells were mock or ΔPK-infected (multiplicity of infection, moi=1.0) with and without the autophagy inhibitor 3-MA and protein extracts were assayed for LC3-I and LC3-II expression by immunoblotting. Data were quantified by densitometric scanning, and results are expressed as LC3-I/LC3-II ratio±s.d. (B). A2058 melanoma cultures were mock or ΔPK-infected (moi=5), cultured in serum-free medium and stained with ethidium homodimer-1 (EtHD-1) at 48 h p.i. Cells were counted in three randomly selected fields (>250 cells) and the mean percentage of staining cells was calculated.
The role of autophagy in cell death is still controversial. The general consensus is that autophagy is a mechanism that promotes or counteracts cell death depending on the cell type, stimulus and conditions. […] To examine whether autophagy was increased in ΔPK infected cells, we focused on LC3-I conversion to LC3-II which serves as a marker for autophagosome maturation.
A2058 cells were mock and ΔPK-infected (multiplicity of infection, moi=1.0) with and without the autophagy inhibitor 3-MA. Data were quantified by densitometric scanning, and results are expressed as the ratio of the LC3-I/LC3-II ratio±s.d.
In general terms: In western blotting, separated proteins are transferred to a membrane and probed.

Another assay deals with A2058 melanoma cultures. The experiment in a line: EtHD-1 cell death with or without autophagy inhibitor. The class given is cell-based, human. The conditions noted are these: A2058, ΔPK plus 3-MA, 48 h p.i. As for the experimental part:
as §1
To examine the role of autophagy in ΔPK-induced melanoma cell death, the cultures were mock-infected with PBS or infected with ΔPK in the absence or presence of 3-MA and cell death was determined at 0-72 h p.i. by EtHD-1 staining. ΔPK caused a time-dependent increase in the percentage of EtHD-1+ cells that reached maximal levels at 48 h p.i. (51.1±4.8%,).
A2058 melanoma cultures were mock or ΔPK-infected (moi=0.5), cultured in serum-free medium and stained with ethidium homodimer-1 (EtHD-1) at 48 h p.i. Cells were counted in three randomly selected fields (>250 cells) and the mean percentage of staining cells was calculated.

In the case of `Cn1cnc(N)c2ncnc1-2` [3-MA, 3-Methyl-adenine], the “effect of inhibitor on LC3-I conversion after ΔPK treatment” value in the assay on LC3-I/LC3-II is listed as “reversed LC3-I conversion”. The “percentage of cell death (EtHD-1+) in ΔPK infected cultures in presence of inhibitor” value with A2058 melanoma cultures is 37.3±5.2%.
